Consider ten molecules from PubChem BioAssay (NCI).

Values joined by “and” are separate entries in the source; they are usually repeats but may differ in a detail not shown here. Equal entries are not always repeated.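 How tested: cells in 96-well plates exposed to compound for 48 hours at five concentrations. GI50 is the concentration that inhibits growth by half. TGI: total growth inhibition.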

Some test systems named below: HT29 colon; UACC-257 melanoma; ACHN renal; 786-0 renal; OVCAR-5 ovarian; LOX IMVI melanoma; EKVX NSCLC; SK-MEL-2 melanoma.
Holding throughout (assay): DTP human tumour cell line panel, 48 h

With `COc1ccc(-c2ccc3c(N4CCOC[C@@H]4C)nc(N4CCOC[C@@H]4C)nc3n2)cc1CO`, the GI50 (as a rule, the concentration giving 50% growth inhibition) is 0.00674 µM and 0.0385 µM in the test on HT29 colon; 0.00454 µM and 0.023 µM with UACC-257 melanoma; 0.00495 µM and 0.0209 µM in the test on ACHN renal; 0.00494 µM and 0.0416 µM with 786-0 renal; 0.00607 µM and 0.0331 µM with OVCAR-5 ovarian; 0.00476 µM and 0.028 µM with LOX IMVI melanoma. In the test with EKVX NSCLC, the 50% growth inhibitory concentration (GI50) is 0.00504 µM and 0.0229 µM. Further, the total growth inhibition concentration (TGI) (commonly the concentration at which net growth stops) in the test on HT29 colon was > 10 µM and 5.9 µM; with UACC-257 melanoma, 0.0285 µM; in the test on ACHN renal, > 100 µM; with 786-0 renal, > 45.1 µM; in the test with OVCAR-5 ovarian, 60.3 µM; in the test with LOX IMVI melanoma, > 100 µM. Further, the total growth inhibition concentration (TGI) with EKVX NSCLC is 0.113 µM and 0.564 µM.

For `Cc1cc(Nc2nc(-c3cn(-c4ccc(Cl)cc4)nn3)nc3ccccc23)n[nH]1`, the GI50 is 8.23 µM in the test with SK-MEL-2 melanoma; 23.5 µM with HT29 colon; 33.4 µM in the test on UACC-257 melanoma; 3.62 µM with ACHN renal; 15.1 µM with 786-0 renal; > 50 µM in the test with OVCAR-5 ovarian. In addition, the GI50 in the test on LOX IMVI melanoma is 9.7 µM. In addition, the total growth inhibition concentration (TGI) with SK-MEL-2 melanoma was 29.8 µM; in the test on HT29 colon, > 50 µM; in the test on UACC-257 melanoma, > 50 µM; in the test on ACHN renal, > 50 µM; in the test with 786-0 renal, > 50 µM; with OVCAR-5 ovarian, > 50 µM. In the test on LOX IMVI melanoma, the total growth inhibition concentration (TGI) was > 50 µM.

For `CCCCCCCCCCNC(=O)CI`, the GI50 in the test on SK-MEL-2 melanoma was 1.94 µM; in the test on HT29 colon, 1.98 µM; with UACC-257 melanoma, 1.63 µM; with ACHN renal, 1.65 µM; in the test with 786-0 renal, 1.8 µM; with OVCAR-5 ovarian, 3.39 µM. In addition, the GI50 with LOX IMVI melanoma is < 0.0424 µM. The TGI in the test with SK-MEL-2 melanoma is 4.02 µM; in the test with HT29 colon, 3.76 µM; with UACC-257 melanoma it was 3.39 µM; in the test on ACHN renal, 3.08 µM; in the test on 786-0 renal, 3.37 µM; with OVCAR-5 ovarian, 10.4 µM. In the test on LOX IMVI melanoma, this molecule came in with a TGI of 0.104 µM.

Turning to `O=C(O)c1cccc(COc2ccc([N+](=O)[O-])cc2Cl)c1`, the GI50 with SK-MEL-2 melanoma is > 100 µM; in the test with ACHN renal, > 100 µM; in the test on 786-0 renal, > 100 µM; in the test on OVCAR-5 ovarian it was > 100 µM; in the test with LOX IMVI melanoma it was 94 µM; in the test on EKVX NSCLC, 0.549 µM. In addition, the TGI in the test on SK-MEL-2 melanoma is > 100 µM; with ACHN renal, > 100 µM; with 786-0 renal it was > 100 µM; with OVCAR-5 ovarian, > 100 µM; with LOX IMVI melanoma, > 100 µM; in the test with EKVX NSCLC it was 4.87 µM.

Regarding `Cc1cc(N/N=C/c2ccccn2)nc2ccccc12`, the GI50 in the test on SK-MEL-2 melanoma is 4.89 µM; with HT29 colon, 0.605 µM; with UACC-257 melanoma, 0.395 µM; with ACHN renal, 0.347 µM; with 786-0 renal, 0.384 µM; in the test with OVCAR-5 ovarian, 0.542 µM. Further, the GI50 with LOX IMVI melanoma is 0.413 µM. For the same molecule, the concentration for total growth inhibition (TGI) worked out at 19.6 µM with SK-MEL-2 melanoma; 13.1 µM in the test with HT29 colon; 5.02 µM with UACC-257 melanoma; 11.1 µM in the test with ACHN renal; 12.4 µM with 786-0 renal; 18.5 µM in the test with OVCAR-5 ovarian. The molecule further showed a TGI with LOX IMVI melanoma of 10.9 µM.

As for `COC(=O)c1cc2c(o1)-c1nccc3c1c(nc1ccccc13)C2=O`, the GI50 is 8.01 µM in the test with HT29 colon; 3.68 µM in the test on UACC-257 melanoma; 2.27 µM with ACHN renal; 2.93 µM in the test with 786-0 renal; 17.3 µM with OVCAR-5 ovarian; 3.61 µM in the test with LOX IMVI melanoma. Also, in the test on EKVX NSCLC, the GI50 was 14.9 µM. Moreover, the TGI in the test on HT29 colon stood at 24.8 µM; in the test with UACC-257 melanoma it was 15.3 µM; with ACHN renal it was 14.7 µM; with 786-0 renal it was 14 µM; with OVCAR-5 ovarian, 34.3 µM; in the test with LOX IMVI melanoma it was 16.2 µM. The molecule further came in with a TGI in the test on EKVX NSCLC of 35 µM.

Regarding `CC(C)(C)[Si](C)(C)OC1[C@@H](CNC(=O)NC(=O)CCl)O[C@@H](n2cnc3c(N)ncnc32)[C@H]1O[Si](C)(C)C(C)(C)C` (stereo partly drawn), the GI50 in the test on SK-MEL-2 melanoma is 1.04 µM; in the test on HT29 colon, 0.585 µM; in the test with UACC-257 melanoma, 2.65 µM; in the test with ACHN renal, 0.462 µM; in the test with 786-0 renal it was 0.662 µM; in the test with OVCAR-5 ovarian, 0.818 µM. Also, the GI50 in the test on LOX IMVI melanoma is 0.148 µM. Besides, the total growth inhibition concentration (TGI) in the test on SK-MEL-2 melanoma came out at 2.01 µM; in the test on HT29 colon it was 1.43 µM; in the test with UACC-257 melanoma, 6.93 µM; with ACHN renal it was 1.11 µM; in the test with 786-0 renal, 1.55 µM; with OVCAR-5 ovarian, 1.62 µM. Further, in the test on LOX IMVI melanoma, the concentration for total growth inhibition (TGI) is 0.382 µM.

Take `NNCCc1ccc(NC(=O)CCCc2ccc(C(=O)Nc3ccccc3N)cc2)cc1`: the GI50 with SK-MEL-2 melanoma was 7.49 µM; in the test with HT29 colon it was 4.07 µM; in the test on ACHN renal, 17.7 µM; with 786-0 renal it was 15.7 µM; with OVCAR-5 ovarian, 8.15 µM; with LOX IMVI melanoma it was 15.9 µM. The GI50 with EKVX NSCLC is 51.1 µM. In addition, the TGI in the test with SK-MEL-2 melanoma, in the test with HT29 colon, with ACHN renal, in the test with 786-0 renal, in the test on OVCAR-5 ovarian and in the test on LOX IMVI melanoma was > 100 µM throughout. Moreover, the TGI in the test on EKVX NSCLC is > 100 µM.

For the molecule `N#CCCN1C/C(=C/c2ccc(Br)cc2)C(=O)/C(=C/c2ccc(Br)cc2)C1`, the GI50 was 2.6 µM with SK-MEL-2 melanoma; 0.338 µM in the test on HT29 colon; 2.09 µM with UACC-257 melanoma; 1.76 µM in the test on ACHN renal; 1.38 µM with 786-0 renal; 1.92 µM in the test with OVCAR-5 ovarian. In the test on LOX IMVI melanoma, the GI50 was 0.512 µM. The TGI in the test with SK-MEL-2 melanoma was 6.54 µM; with HT29 colon, 1.24 µM; in the test with UACC-257 melanoma, 5.32 µM; in the test on ACHN renal it was 3.37 µM; with 786-0 renal, 2.84 µM; in the test on OVCAR-5 ovarian it was 3.97 µM. The concentration for total growth inhibition (TGI) in the test on LOX IMVI melanoma worked out at 1.76 µM.

Take `ClCCN(CCCl)c1ccc(CNc2ccccc2)cc1`: the GI50 with SK-MEL-2 melanoma was 20.9 µM; in the test on HT29 colon it was 20.4 µM; with UACC-257 melanoma it was 12.7 µM; with ACHN renal, 2.76 µM; in the test with 786-0 renal it was 5.11 µM; with OVCAR-5 ovarian it was 25.8 µM. The GI50 in the test with LOX IMVI melanoma is 4.52 µM. For the same molecule, the concentration for total growth inhibition (TGI) in the test on SK-MEL-2 melanoma was 51 µM; in the test with HT29 colon, > 100 µM; with UACC-257 melanoma it was > 100 µM; in the test with ACHN renal, > 100 µM; in the test on 786-0 renal, 36 µM; in the test with OVCAR-5 ovarian, > 100 µM. Further, in the test with LOX IMVI melanoma, the TGI was 26 µM.
